Measurements from patent US6534490B1, “Unsaturated 14, 15-cyclopropanoandrostanes, method for the production thereof and pharmaceutical preparations containing said compounds” (Jenapharm GmbH & Co. KG., priority 1998, dated 2003).

Assays:
[1] = Hershberger Test; type: in vivo
[2] = Pregnancy maintenance test; type: in vivo
[3] = molecular target: T1, androgen receptor of the rat prostate (Rattus norvegicus, UniProt P15207); assay: Binding to the androgen receptor of the rat prostate (reference substance R 1881); details: relative to reference substance R 1881 (17β-hydroxy-17α-methyl-estra-4,9,11-trien-3-one)
T1 construct: from tissue; host or cells: rat prostate
T1 sequence (P15207 1-902): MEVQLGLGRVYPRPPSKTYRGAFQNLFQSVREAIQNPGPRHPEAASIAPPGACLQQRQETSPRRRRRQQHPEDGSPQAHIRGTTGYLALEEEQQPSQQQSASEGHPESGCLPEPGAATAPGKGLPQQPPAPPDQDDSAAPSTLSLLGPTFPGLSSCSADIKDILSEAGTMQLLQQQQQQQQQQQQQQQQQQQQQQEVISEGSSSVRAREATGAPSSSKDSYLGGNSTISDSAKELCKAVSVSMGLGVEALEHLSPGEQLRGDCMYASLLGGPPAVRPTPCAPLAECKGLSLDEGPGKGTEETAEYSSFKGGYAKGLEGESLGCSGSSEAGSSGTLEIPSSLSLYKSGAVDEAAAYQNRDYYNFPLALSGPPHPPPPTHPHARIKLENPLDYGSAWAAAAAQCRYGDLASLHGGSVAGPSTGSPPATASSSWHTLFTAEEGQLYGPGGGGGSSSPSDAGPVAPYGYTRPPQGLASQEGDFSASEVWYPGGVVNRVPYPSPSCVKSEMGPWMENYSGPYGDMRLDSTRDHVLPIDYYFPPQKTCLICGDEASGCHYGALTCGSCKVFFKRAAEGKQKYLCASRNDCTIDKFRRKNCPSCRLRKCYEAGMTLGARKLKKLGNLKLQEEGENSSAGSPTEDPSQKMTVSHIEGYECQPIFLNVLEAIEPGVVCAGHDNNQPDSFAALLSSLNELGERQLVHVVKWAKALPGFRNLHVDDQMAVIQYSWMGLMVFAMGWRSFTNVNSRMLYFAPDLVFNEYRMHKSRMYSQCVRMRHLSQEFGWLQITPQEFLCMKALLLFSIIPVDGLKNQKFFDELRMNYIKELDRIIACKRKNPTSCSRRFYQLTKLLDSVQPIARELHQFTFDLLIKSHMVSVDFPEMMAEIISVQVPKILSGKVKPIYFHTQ

[4] = molecular target: T2, progesterone receptor of the rabbit uterus (Oryctolagus cuniculus, UniProt P06186); assay: Binding to the progesterone receptor of the rabbit uterus (reference substance progesterone)
T2 construct: from tissue; host or cells: rabbit uterus
T2 sequence (P06186 1-930): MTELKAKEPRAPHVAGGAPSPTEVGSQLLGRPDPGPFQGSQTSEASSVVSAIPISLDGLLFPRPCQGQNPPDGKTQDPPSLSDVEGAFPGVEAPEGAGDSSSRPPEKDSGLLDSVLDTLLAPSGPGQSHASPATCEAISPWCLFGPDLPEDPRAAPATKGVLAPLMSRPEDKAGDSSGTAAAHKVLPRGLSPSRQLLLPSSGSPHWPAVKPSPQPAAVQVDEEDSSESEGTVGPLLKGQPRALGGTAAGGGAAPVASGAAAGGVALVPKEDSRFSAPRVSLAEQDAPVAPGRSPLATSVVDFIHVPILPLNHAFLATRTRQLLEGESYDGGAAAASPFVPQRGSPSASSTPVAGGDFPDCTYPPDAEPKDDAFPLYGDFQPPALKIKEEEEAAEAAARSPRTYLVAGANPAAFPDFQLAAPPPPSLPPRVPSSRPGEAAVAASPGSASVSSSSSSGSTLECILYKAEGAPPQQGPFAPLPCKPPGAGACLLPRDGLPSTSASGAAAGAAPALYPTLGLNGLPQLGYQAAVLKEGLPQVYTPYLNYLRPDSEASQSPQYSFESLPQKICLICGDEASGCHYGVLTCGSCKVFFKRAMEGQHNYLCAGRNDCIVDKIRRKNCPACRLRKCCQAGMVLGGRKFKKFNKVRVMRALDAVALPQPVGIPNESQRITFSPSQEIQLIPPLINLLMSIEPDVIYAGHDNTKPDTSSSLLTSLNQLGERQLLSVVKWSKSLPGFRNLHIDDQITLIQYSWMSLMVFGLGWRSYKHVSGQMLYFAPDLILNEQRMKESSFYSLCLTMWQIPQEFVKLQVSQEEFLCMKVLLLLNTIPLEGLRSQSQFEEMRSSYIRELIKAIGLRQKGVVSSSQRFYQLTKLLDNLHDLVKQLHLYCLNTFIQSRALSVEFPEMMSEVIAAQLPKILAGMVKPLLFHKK

C[C@]12CCC(=O)C=C1CC[C@@H]1[C@@H]2CC[C@]2(C)[C@@H](O)C[C@@H]3C[C@]312 [J 1193, 17β-hydroxy-14α,15α-methylen-androst-4-en-3-one]
androgenic activity [1]: significant androgenic activity
gestagenic action [2]: very little gestagenic action
binding to the androgen receptor [3]: 24±3%
binding to the progesterone receptor [4]: virtually no binding
